Laboratory results taken from ChEMBL document CHEMBL3867474, “Discovery of novel pyrrolidineoxy-substituted heteroaromatics as potent and selective PI3K delta inhibitors with improved physicochemical properties” (Bioorg Med Chem Lett, 2016).
Converted amounts (≈) assume the structure as drawn.

Columns and labels:
[1] = target: T1, Phosphatidylinositol 4,5-bisphosphate 3-kinase catalytic subunit beta isoform (Homo sapiens, UniProt P42338); assay: Inhibition of PI3K-beta (unknown origin) by KinaseGlo assay
[2] = target: T2, Phosphatidylinositol 4,5-bisphosphate 3-kinase catalytic subunit delta isoform (Homo sapiens) (UniProt O00329); assay: Selectivity ratio of IC50 for myristoylated PI3K-delta (unknown origin) overexpressed in Rat1 cells to IC50 for PI3K-delta (unknown origin); assay type: cell-based
T2 sequence (whole entry): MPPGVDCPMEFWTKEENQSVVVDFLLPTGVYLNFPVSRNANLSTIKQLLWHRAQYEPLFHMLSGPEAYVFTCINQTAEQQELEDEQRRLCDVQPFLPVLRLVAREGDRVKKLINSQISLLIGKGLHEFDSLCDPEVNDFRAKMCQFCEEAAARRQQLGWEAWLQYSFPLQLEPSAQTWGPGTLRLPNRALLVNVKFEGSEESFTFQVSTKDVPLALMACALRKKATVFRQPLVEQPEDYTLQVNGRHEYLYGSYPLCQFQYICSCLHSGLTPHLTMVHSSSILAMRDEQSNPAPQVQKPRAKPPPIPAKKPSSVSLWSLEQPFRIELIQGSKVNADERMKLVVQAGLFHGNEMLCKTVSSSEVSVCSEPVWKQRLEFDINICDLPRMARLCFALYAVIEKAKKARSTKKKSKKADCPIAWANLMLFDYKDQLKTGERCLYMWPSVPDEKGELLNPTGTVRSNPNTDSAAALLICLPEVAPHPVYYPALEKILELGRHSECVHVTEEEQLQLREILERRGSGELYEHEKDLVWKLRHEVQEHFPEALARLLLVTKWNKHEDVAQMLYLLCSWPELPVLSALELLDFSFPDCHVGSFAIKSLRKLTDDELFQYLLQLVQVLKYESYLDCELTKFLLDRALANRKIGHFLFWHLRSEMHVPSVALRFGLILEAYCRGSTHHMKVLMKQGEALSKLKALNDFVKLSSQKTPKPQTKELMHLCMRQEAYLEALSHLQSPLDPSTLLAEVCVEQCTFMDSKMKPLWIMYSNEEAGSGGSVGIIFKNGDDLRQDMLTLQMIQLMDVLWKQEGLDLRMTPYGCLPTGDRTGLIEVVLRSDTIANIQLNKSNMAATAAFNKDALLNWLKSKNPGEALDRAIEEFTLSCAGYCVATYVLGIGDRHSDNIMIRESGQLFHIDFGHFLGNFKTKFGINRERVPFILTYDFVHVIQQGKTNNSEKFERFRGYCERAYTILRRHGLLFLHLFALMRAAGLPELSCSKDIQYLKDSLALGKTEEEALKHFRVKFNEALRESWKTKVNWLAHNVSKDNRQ

[3] = Solubility of the compound at pH 6.8 by high-throughput equilibrium analysis; assay type: physicochemical; settings: buffer
[4] = Lipophilicity, log P of the compound by high-throughput assay; assay type: physicochemical; settings: octanol/water
[5] = target: T3, Phosphatidylinositol 4,5-bisphosphate 3-kinase catalytic subunit delta isoform (Homo sapiens, UniProt O00329); assay: Inhibition of PI3K-delta (unknown origin) by KinaseGlo assay
T3 sequence (O00329 whole entry): T2 sequence (whole entry)

[6] = target: Phosphatidylinositol 4,5-bisphosphate 3-kinase catalytic subunit gamma isoform (Homo sapiens, UniProt P48736); assay: Inhibition of PI3K-gamma (unknown origin) by KinaseGlo assay
[7] = target: T1, Phosphatidylinositol 4,5-bisphosphate 3-kinase catalytic subunit beta isoform; assay: Inhibition of myristoylated PI3K-beta (unknown origin) overexpressed in Rat1 cells assessed as inhibition of Akt phosphorylation; assay type: cell-based
[8] = target: T4, Phosphatidylinositol 4,5-bisphosphate 3-kinase catalytic subunit alpha isoform (Homo sapiens, UniProt P42336); assay: Inhibition of PI3K-alpha (unknown origin) by KinaseGlo assay
[9] = target: T4, Phosphatidylinositol 4,5-bisphosphate 3-kinase catalytic subunit alpha isoform; assay: Inhibition of myristoylated PI3K-alpha (unknown origin) overexpressed in Rat1 cells assessed as inhibition of Akt phosphorylation; assay type: cell-based
[10] = target: T3, Phosphatidylinositol 4,5-bisphosphate 3-kinase catalytic subunit delta isoform; assay: Inhibition of myristoylated PI3K-delta (unknown origin) overexpressed in Rat1 cells assessed as inhibition of Akt phosphorylation; assay type: cell-based
[11] = target: T5, Phosphatidylinositol 4,5-bisphosphate 3-kinase catalytic subunit delta isoform (Mus musculus, UniProt O35904); assay: Inhibition of PI3K-delta in mouse splenocytes assessed as inhibition anti-IgM induced CD86 expression; assay type: cell-based
T5 sequence (O35904 whole entry): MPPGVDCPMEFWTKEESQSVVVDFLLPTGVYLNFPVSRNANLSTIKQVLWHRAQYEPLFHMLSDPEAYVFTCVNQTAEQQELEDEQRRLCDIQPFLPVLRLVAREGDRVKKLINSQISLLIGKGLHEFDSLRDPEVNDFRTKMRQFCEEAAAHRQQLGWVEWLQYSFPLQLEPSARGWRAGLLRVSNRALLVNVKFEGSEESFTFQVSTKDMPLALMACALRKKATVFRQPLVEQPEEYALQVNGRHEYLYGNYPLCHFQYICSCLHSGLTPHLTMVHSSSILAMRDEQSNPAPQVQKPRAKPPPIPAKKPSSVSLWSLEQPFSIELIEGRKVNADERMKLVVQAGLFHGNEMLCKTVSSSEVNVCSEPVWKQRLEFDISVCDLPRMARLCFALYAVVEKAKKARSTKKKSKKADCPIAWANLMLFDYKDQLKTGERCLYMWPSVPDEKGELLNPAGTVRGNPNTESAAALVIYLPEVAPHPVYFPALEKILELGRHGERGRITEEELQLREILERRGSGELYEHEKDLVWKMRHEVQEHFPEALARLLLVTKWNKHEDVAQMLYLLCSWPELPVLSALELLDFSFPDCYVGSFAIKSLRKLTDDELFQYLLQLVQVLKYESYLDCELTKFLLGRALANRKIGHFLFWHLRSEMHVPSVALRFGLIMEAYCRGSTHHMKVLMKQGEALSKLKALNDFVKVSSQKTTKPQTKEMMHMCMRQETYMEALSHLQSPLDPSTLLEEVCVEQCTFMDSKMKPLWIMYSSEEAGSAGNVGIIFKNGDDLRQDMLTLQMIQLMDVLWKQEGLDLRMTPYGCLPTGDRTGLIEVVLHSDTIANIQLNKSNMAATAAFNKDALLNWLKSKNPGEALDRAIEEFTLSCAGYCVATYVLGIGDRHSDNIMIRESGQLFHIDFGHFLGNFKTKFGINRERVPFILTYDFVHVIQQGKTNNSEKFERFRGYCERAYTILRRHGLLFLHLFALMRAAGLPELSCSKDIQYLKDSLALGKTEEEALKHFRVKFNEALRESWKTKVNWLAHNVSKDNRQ

Rat1 = assay: Selectivity ratio of IC50 for PI3K-delta in rat whole blood to IC50 for myristoylated PI3K-delta (unknown origin) overexpressed in Rat1 cells; assay type: cell-based
[12] = Inhibition of PI3K-delta in rat whole blood assessed as inhibition of anti-IgM/IL4 induced CD86 expression; assay type: tissue-based

T1 sequence (P42338 whole entry, canonical isoform): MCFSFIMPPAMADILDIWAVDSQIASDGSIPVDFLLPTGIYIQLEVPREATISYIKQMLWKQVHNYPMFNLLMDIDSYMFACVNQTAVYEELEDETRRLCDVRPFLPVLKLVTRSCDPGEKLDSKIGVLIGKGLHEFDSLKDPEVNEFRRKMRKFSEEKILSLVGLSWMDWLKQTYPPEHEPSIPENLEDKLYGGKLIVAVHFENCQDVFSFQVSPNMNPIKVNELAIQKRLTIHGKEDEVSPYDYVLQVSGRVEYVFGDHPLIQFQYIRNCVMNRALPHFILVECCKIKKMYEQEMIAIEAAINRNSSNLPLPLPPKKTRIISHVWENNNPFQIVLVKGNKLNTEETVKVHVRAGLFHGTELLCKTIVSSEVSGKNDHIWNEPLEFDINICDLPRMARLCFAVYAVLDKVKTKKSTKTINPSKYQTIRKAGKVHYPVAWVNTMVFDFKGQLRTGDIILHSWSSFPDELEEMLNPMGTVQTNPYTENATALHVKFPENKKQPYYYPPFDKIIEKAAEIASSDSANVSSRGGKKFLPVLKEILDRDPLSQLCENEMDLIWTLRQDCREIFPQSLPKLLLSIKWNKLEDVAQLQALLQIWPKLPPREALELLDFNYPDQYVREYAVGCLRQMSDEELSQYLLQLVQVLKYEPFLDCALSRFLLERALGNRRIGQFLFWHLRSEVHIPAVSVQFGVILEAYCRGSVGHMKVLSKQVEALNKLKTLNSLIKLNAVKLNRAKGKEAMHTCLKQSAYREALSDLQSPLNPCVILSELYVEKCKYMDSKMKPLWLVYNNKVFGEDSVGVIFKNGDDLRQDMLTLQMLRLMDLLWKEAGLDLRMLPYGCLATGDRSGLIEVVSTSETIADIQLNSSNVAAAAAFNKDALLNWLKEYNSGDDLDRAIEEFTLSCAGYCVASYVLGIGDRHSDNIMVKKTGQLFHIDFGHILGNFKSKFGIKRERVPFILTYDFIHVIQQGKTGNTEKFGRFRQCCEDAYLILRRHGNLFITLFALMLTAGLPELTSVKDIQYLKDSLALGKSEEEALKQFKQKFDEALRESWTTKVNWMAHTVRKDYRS
T4 sequence (P42336 whole entry, canonical isoform): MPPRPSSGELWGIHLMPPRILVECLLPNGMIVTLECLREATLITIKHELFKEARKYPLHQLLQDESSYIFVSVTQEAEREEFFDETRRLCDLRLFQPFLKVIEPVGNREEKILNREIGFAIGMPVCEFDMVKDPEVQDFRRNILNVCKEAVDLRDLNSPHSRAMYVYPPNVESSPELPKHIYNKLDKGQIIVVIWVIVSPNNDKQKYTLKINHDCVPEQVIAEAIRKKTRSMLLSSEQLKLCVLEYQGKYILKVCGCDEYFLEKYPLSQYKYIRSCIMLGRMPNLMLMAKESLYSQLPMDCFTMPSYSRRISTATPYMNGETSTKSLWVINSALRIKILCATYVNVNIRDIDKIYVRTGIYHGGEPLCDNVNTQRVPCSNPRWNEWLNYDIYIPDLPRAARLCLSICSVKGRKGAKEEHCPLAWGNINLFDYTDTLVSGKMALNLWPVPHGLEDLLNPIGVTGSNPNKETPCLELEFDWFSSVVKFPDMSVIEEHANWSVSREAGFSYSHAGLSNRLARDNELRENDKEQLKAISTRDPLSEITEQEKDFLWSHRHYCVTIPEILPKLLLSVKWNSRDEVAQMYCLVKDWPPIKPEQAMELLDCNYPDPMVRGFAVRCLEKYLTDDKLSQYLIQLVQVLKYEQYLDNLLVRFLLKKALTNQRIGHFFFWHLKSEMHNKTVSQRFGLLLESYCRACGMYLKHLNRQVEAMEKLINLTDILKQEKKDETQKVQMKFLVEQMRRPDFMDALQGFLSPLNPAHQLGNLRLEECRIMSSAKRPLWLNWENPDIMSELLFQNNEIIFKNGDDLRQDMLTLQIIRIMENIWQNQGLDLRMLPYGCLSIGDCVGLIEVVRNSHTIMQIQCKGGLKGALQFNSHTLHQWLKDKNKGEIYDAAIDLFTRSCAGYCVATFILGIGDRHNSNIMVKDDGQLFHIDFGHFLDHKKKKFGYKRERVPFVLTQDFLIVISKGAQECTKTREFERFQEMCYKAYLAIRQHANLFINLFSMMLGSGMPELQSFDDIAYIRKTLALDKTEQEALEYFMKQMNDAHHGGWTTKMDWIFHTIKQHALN
Phosphatidylinositol 4,5-bisphosphate 3-kinase catalytic subunit gamma isoform, sequence (P48736 whole entry, canonical isoform): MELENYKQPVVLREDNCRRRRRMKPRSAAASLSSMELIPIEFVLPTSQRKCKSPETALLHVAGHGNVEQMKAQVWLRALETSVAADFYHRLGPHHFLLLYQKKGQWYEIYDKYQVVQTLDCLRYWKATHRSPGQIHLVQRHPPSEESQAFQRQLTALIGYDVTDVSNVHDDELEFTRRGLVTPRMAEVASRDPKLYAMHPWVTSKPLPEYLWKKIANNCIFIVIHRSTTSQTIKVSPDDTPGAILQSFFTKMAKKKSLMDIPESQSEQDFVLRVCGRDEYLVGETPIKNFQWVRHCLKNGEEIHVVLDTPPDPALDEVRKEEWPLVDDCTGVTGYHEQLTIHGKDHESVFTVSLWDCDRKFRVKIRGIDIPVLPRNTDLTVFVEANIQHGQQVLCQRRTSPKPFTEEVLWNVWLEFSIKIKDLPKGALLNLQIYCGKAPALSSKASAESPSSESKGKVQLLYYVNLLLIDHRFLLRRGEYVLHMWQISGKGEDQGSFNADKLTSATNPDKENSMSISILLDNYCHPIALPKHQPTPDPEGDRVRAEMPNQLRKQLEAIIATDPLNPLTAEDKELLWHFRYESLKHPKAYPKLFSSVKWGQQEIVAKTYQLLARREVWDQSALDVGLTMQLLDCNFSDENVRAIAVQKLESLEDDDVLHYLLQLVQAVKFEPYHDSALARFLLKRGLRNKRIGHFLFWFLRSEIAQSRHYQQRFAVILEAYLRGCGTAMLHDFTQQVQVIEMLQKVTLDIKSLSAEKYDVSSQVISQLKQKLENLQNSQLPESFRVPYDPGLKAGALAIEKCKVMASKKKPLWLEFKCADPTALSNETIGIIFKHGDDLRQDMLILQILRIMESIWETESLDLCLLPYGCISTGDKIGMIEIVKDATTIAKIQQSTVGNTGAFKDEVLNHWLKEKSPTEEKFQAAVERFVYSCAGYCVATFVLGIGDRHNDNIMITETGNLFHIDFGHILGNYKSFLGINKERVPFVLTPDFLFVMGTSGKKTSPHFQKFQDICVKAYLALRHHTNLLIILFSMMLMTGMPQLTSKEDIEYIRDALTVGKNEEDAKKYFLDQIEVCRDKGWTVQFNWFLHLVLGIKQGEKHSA

Structure (SMILES) | IC50 [1] | Ratio IC50 [2] | solubility thermodynamic [3] | logP [4] | IC50 [5] | IC50 [6] | IC50 [7] | IC50 [8] | IC50 [9] | IC50 [10] | IC50 [11] | Ratio IC50 (Rat1) | IC50 [12]
CCC(=O)N1CC[C@H](Oc2ccnc3ccc(-c4ccc(OC)nc4)nc23)C1 | 1030 nM | 29 | > 1000 µM | 2.2 | 22 nM | 2940 nM | 3210 nM | 424 nM | 2360 nM | 646 nM | – | – | –
COc1ccc(-c2ccc3ncnc(O[C@@H]4CCN(C(=O)OC(C)(C)C)C4)c3c2)cc1OC | 3880 nM | – | 6 µM (≈ 2.71 µg/mL) | 4.9 | 256 nM | 642 nM | – | 693 nM | – | – | – | – | –
CCC(=O)N1CC[C@H](Oc2ccnc3ccc(-c4ccc(OC)nc4)cc23)C1 | 655 nM | 15 | > 1000 µM | 3.4 | 11 nM | 828 nM | 877 nM | 220 nM | 606 nM | 162 nM | 155 nM | 2.3 | 377 nM
COc1ccc(-c2ccc3ncnc(O[C@H]4CCN(C(=O)OC(C)(C)C)C4)c3c2)cc1OC | 956 nM | 4 | 9 µM (≈ 4.06 µg/mL) | 5.3 | 10 nM | 282 nM | 1520 nM | 148 nM | 262 nM | 44 nM | – | – | –
COc1ccc(-c2ccc3ncnc(O[C@H]4CCN(C)C4)c3c2)cc1OC | 1480 nM | – | > 1000 µM | 3.6 | 130 nM | 1210 nM | – | 888 nM | – | – | – | – | –
COc1ccc(-c2ccc3ncnc(O[C@@H]4CCN(C)C4)c3c2)cc1OC | 1940 nM | – | > 1000 µM | 3.6 | 110 nM | 2070 nM | – | 842 nM | – | – | – | – | –
CCC(=O)N1CC[C@@H](Oc2cnc3ccc(-c4ccc(OC)c(OC)c4)cc3n2)C1 | 860 nM | 5 | 40 µM (≈ 16.3 µg/mL) | 3.8 | 15 nM | 366 nM | 2130 nM | 491 nM | 1860 nM | 72 nM | 85 nM | 4 | 282 nM
CCC(=O)N1CC[C@H](Oc2ncnc3ccc(-c4ccc(OC)nc4)cc23)C1 | 669 nM | 3 | > 1000 µM | 2.8 | 9 nM | 698 nM | 1780 nM | 218 nM | 1030 nM | 28 nM | 82 nM | 11 | 297 nM
CCC(=O)N1CC[C@H](Oc2cnnc3ccc(-c4ccc(OC)nc4)cc23)C1 | 9010 nM | 13 | 370 µM (≈ 140 µg/mL) | 2.8 | 188 nM | > 9100 nM | > 10000 nM | 5080 nM | > 10000 nM | 2840 nM | – | – | –
COc1ccc(-c2ccc3ncnc(-c4cccc(C(=O)N5CCN(C(C)=O)CC5)c4)c3c2)cc1OC | – | – | 610 µM (≈ 303 µg/mL) | – | – | – | – | – | – | – | – | – | –
COc1ccc(-c2ccc3ncnc(O[C@H]4CCN(C(C)=O)C4)c3c2)cc1OC | 304 nM | 5 | > 1000 µM | 2.6 | 16 nM | 194 nM | 407 nM | 126 nM | 210 nM | 82 nM | – | – | –
CCC(=O)N1CC[C@H](Oc2ncnc3ccc(-c4cnc(OC)c(C#N)c4)cc23)C1 | 360 nM | 16 | 10 µM (≈ 4.03 µg/mL) | 2.6 | 5 nM | 978 nM | 1280 nM | 386 nM | 1380 nM | 79 nM | – | – | –
CCC(=O)N1CC[C@H](Oc2cnc3ccc(-c4ccc(OC)c(OC)c4)cc3n2)C1 | > 9100 nM | – | 80 µM (≈ 32.6 µg/mL) | 3.7 | 488 nM | 3780 nM | – | 3230 nM | – | – | – | – | –
COc1ccc(-c2ccc3ncnc(O[C@@H]4CCN(C(C)=O)C4)c3c2)cc1OC | 1790 nM | – | > 1000 µM | 2.4 | 146 nM | 1230 nM | – | 676 nM | – | – | – | – | –
